Laboratory results published in PMC9917862 (International Journal of Molecular Sciences, 2023).
Entries after “also recorded” stand apart in the source; their conditions may differ. Read-outs that look alike come from different tables or passages of the source.

Key:
plasma protein = details: cited from earlier work
[1] = Proton dissociation constants by UV-vis titration; type: physicochemical
Procedure: An Agilent Carry 8454 diode array spectrophotometer was used to obtain UV-vis spectra in the interval 190–1100 nm, the path length (l) was 1 cm. The spectrophotometric titrations were performed with samples containing 25–200 μM compound over the pH range 2.0–11.5 at an ionic strength of 0.10 M (KCl) and at 25 °C. Proton dissociation constants together with the individual molar absorbance spectra were calculated with the computer program PSEQUAD [52]. The program requires the following input data: measured spectra together with the corresponding pH and analytical (total) concentration of the compounds; species matrix, with approximate protonation constant(s) and the absorbing species need to be defined. The Newton–Raphson iterative method was used to obtain protonation constant(s) with standard deviations and molar spectra of the individual species.

[2] = Proton dissociation constants by pH-potentiometry; type: physicochemical
Procedure: pH-potentiometric titrations of the antiviral agents were carried out similarly to our former works.

[3] = molecular target: T1, α1-acid glycoprotein (AGP) (Homo sapiens, UniProt P02763); assay: Dipyridamole (DIP) displacement from AGP, fluorescence anisotropy; type: binding; details: cAGP = 2.0 μM; cDIP = 1.0 μM; pH 7.4 (PBS); 25 °C
T1 construct: purchased Sigma–Aldrich G9885
T1 sequence (P02763 19-201): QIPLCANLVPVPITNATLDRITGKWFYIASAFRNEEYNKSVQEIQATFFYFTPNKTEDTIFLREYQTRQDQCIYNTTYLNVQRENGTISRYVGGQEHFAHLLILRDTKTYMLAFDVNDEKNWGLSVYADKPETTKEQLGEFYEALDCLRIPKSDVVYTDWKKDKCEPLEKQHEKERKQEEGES

[4] = molecular target: T1, α1-acid glycoprotein (AGP); assay: Frontal analysis capillary electrophoresis (FACE) with AGP; type: binding; details: pH 7.4 (PBS); 25 °C
HSA + AGP = details: human, 200 μM, pH 7.4
[5] = molecular target: T2, human serum albumin (HSA), site I (Trp-214) (Homo sapiens, UniProt P02768); assay: Steady-state fluorometry, quenching of HSA Trp-214 fluorescence; type: binding; details: pH 7.4 (PBS), 25 °C
T2 construct: purchased Sigma–Aldrich A8763
T2 sequence (P02768 25-609): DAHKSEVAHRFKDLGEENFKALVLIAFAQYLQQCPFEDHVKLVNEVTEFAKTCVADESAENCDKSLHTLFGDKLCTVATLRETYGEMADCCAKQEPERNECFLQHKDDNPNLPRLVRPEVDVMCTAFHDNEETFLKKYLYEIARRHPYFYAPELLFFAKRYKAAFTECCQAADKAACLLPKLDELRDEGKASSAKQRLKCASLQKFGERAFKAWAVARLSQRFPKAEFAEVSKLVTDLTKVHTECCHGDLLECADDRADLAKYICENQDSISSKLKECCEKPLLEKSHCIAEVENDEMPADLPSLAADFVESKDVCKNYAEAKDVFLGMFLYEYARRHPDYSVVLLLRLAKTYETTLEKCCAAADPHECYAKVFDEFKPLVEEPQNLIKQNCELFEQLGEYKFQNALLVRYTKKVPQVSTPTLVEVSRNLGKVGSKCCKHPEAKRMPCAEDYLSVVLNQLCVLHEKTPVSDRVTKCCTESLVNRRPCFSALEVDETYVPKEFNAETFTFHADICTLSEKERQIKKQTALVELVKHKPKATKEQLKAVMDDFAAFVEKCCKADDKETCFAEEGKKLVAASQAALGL

HSA site I = molecular target: T3, HSA site I (Homo sapiens, UniProt P02768); assay: Warfarin (WF) site marker displacement from HSA; type: binding; details: HSA-WF 1:1; pH 7.4 (PBS); 25 °C
T3 construct: purchased Sigma–Aldrich A8763
T3 sequence (P02768 25-609): as above

[6] = molecular target: T1, α1-acid glycoprotein (AGP); assay: Steady-state fluorometry, quenching of AGP fluorescence; type: binding; details: for quenching of the fluorescence of AGP: pH 7.4 (PBS), 25 °C
[7] = Aqueous stability of FAVI and IMA followed by UV-vis spectra; type: physicochemical; details: pH 2 and 7.4; 25 °C
physchem [8] = assay: physchem
[9] = test system: human blood serum (HMM fraction); details: pH 7.4
[10] = molecular target: T4, human serum albumin (HSA) (Homo sapiens, UniProt P02768); assay: Ultrafiltration-UV-vis with HSA; type: in vitro ADME; details: for protein bound fraction: pH 7.4 (PBS), 25 °C
T4 construct: purchased Sigma–Aldrich A8763
T4 sequence (P02768 25-609): as above

physchem [11] = details: pH 2, thermodynamic from solid
[12] = Calculated distribution of species in different protonation states; type: physicochemical
physchem [13] = assay: physchem; remark: listed apart in the source
human serum proteins = details: cited from earlier work
physchem [14] = details: pH 2, logD2.0
[15] = molecular target: T4, human serum albumin (HSA); assay: Frontal analysis capillary electrophoresis (FACE) with HSA; type: binding
[16] = test system: α1-acid glycoprotein (AGP); details: human
AGP [17] = details: pH 4.95 (acetate), 25 °C, ITC; cited from earlier work
AGP (native) = details: cited from earlier work
HSA (fatty acid free) = details: pH 7; cited from earlier work
[18] = cited from earlier work
AGP [19] = details: cited from earlier work
AGP (F1-S) = details: pH 7.4 (ringer), 37 °C, circular dichroism; cited from earlier work
AGP [20] = details: pH 4.95 (acetate), 25 °C, NMR spin-lattice relaxation times; cited from earlier work
HSA site II = molecular target: T5, HSA site II (Homo sapiens, UniProt P02768); assay: Dansylglycine (DG) site marker displacement from HSA; type: binding
T5 construct: purchased Sigma–Aldrich A8763
T5 sequence (P02768 25-609): as above

[21] = Aqueous stability of MOLNU followed by 1H NMR; type: physicochemical; details: 25 °C; for hydrolyzed products: in 5 days
Procedure: Molnupiravir, one of the title compounds, contains an ester functional group that may hydrolyze under certain conditions. Therefore, the aqueous stability of MOLNU was investigated as a first step at pH 2.0, 7.4, and 12.0 by ^1H NMR spectroscopy.
^1H NMR spectroscopic measurements were carried out on a Bruker Avance III HD instrument (Billerica, MA, USA). The spectra were recorded with WATERGATE water suppression pulse sequence using DSS internal standard and 10% (v/v) D2O. Aqueous stability of MOLNU was followed at pH 2.0, 7.4 and 12.0.

HSA = molecular target: T6, HSA (Homo sapiens, UniProt P02768); assay: Hydrolysis of MOLNU in the presence of HSA, 1H NMR; type: in vitro ADME; details: HSA 630 μM; 1 mM MOLNU; PBS
T6 construct: purchased Sigma–Aldrich A8763
T6 sequence (P02768 25-609): as above

human transferrin = molecular target: T7, human transferrin (Homo sapiens, UniProt P02787); assay: Hydrolysis of MOLNU in the presence of transferrin, 1H NMR; type: in vitro ADME; details: 45 μM human transferrin; same behavior = no hydrolysis as with HSA
T7 construct: purchased Sigma–Aldrich T3309
T7 sequence (P02787 20-698): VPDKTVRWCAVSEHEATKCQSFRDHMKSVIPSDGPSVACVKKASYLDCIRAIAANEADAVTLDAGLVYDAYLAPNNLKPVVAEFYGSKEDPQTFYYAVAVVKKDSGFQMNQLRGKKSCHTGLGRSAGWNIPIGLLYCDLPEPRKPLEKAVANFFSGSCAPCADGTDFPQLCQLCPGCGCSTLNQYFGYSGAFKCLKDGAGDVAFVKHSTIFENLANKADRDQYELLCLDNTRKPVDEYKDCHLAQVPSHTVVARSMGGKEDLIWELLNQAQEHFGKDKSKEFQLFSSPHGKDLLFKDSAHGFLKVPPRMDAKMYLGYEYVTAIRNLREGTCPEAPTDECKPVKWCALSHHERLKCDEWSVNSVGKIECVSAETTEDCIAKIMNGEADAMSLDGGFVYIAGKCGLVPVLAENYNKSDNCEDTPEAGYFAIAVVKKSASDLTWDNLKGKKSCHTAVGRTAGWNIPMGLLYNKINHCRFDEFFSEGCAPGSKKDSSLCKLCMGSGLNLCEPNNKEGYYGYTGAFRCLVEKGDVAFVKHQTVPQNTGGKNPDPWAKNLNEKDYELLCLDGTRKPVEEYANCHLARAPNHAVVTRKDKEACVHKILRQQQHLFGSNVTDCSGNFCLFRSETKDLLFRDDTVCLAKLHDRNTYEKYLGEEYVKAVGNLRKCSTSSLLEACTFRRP

[22] = pH 7.4, calculated from pKa values
[23] = pH 2.0, calculated from pKa values
[24] = pH 7.4, using pKa4 = 7.7 determined by Szakács et al. [48]

In the case of `O=c1nc(NO)ccn1[C@@H]1O[C@H](CO)[C@@H](O)[C@H]1O` [EIDD-1931, N(4)-hydroxycytidine], the plasma protein binding (plasma protein) is given as “No plasma protein binding was observed”.

For `NC(=O)c1nc(F)c[nH]c1=O` [FAVI, favipiravir], the pKa ([1]; pKa1 (UV-vis)) was 5.08, the pKa ([2]; pKa1 (pHm)) was 5.11 and the “displacement of DIP from AGP” value [3] was “no interaction between the studied species takes place”. For the same compound, the “binding to AGP in FACE” value [4] was “neither of the two proteins are involved in binding of FAVI”, the protein bound fraction (HSA + AGP) was 2 ± 1% and the “quenching of HSA (Trp-214) fluorescence” value [5] was “did not significantly quench”. For the same compound, the “quenching of HSA (Trp-214) fluorescence” value ([5]; listed as Favipiravir) was “did not quench”, the “displacement of WF from HSA site I” value (HSA site I) was “no competition” and the “quenching of the fluorescence of AGP” value ([6]; 91 equiv. of compound) was 6%. The “quenching of the fluorescence of AGP” value [6] was “did not quench”, the “stable in aqueous media at least for” value [7] was ≥ 30 h and the pKa (physchem [8]) was 5.1. For the same compound, the protein bound fraction ([9]; 200 μM) was 22 ± 2%, the protein bound fraction ([10]; HSA 50 μM, 50 μM compound, IMA corrected for 85% filter adhesion) was < 2% and the protein bound fraction ([10]; HSA 630 μM, 200 μM compound) was < 2%. For the same compound, the bound fraction ([10]; different concentrations of HSA) was “less than 2%”, the solubility thermodynamic (physchem [11]) was ≥ 10 mM and the “species L−” value [12, 22] was “L^−:100%”. For the same compound, the pKa (physchem [13]) was 5.17, the “binding attributed to AGP” value (human serum proteins) was 6.5% and the “binding attributed to HSA” value (human serum proteins) was 65%. The logD at 2 h (physchem [14]) was 0.15, the “binding to HSA in FACE” value ([15]; up to 5 equiv. albumin, pH 7.4 (PBS), 25 °C) was “neither of the two proteins are involved in binding of FAVI” and the bound fraction [16] was “less than 2%”. For the same compound, the protein bound fraction ([16]; 25 μM) was < 2%, the protein bound fraction ([16]; 50 μM) was < 2% and the protein bound fraction ([16]; 100 μM) was < 2%. For the same compound, the protein bound fraction ([16]; 200 μM) was < 2%.

In the case of `Cc1ccc(NC(=O)c2ccc(CN3CCN(C)CC3)cc2)cc1Nc1nccc(-c2cccnc2)n1` [IMA, imatinib], the “K′” value (AGP [17]) is given as 8.7 × 10^2, the “logK′” value (AGP [17]) is given as 2.94 and the pKa ([1]; I = 0.1 M (KCl), 25 °C, read-out: pKa1 (UV-vis)) is given as 1.72. For the same compound, the pKa ([2]; I = 0.1 M (KCl), 25 °C, read-out: pKa2 (pHm)) was 3.06, the pKa ([2]; I = 0.1 M (KCl), 25 °C, read-out: pKa3 (pHm)) was 3.86 and the pKa ([2]; I = 0.1 M (KCl), 25 °C, read-out: pKa4 (pHm)) was > 7. For the same compound, the “logK′” value (AGP (native); AGP (native), pH 7.4 (ringer), 37 °C, circular dichroism) was 6.38, the “K′” value (AGP (native); pH 7.4) was 2.4 × 10^6 1.7 × 10^6 and the “ΔlogK′, effect of long-term storage of AGP in plastic microtubes” value [6] was 0.2. The “stable in aqueous media at least for” value [7] was ≥ 30 h, the pKa (physchem [8]) was 7.9 and the “K′” value (HSA (fatty acid free)) was 1.2 × 10^5 1.0 × 10^5. For the same compound, the pKa4 ([18]; pH-potentiometry, I = 0.15 M NaCl, ref 48 (Szakács et al.)) was 7.7, the “species H2L2+” value [12, 23] was “H2L^2+: 5%” and the “species H3L3+” value [12, 23] was 62%. For the same compound, the “species H4L4+” value [12, 23] was 33%, the “species HL+” value [12, 22] was 76% and the “species HL+” value [12, 24] was 67%. For the same compound, the “species L” value [12, 24] was 33%, the “logK′” value (AGP [19]) was 6.69 and the “logK′” value (AGP (F1-S)) was 6.23. For the same compound, the “logK′” value (AGP [20]) was 3.51, the “binding to HSA in FACE” value ([15]; pH 7.4) was “no considerable binding” and the “displacement of DG from HSA site II” value (HSA site II; pH 7.4) was “unable to displace DG”.

In the case of `CC(C)C(=O)OC[C@H]1O[C@@H](n2ccc(NO)nc2=O)[C@H](O)[C@@H]1O` [MOLNU, molnupiravir], the pKa ([1]; pKa1 (UV-vis)) is reported as 2.11, the pKa ([1]; pKa2 (UV-vis)) is reported as 10.3 and the hydrolyzed products ([21]; pH 2.0) is reported as 8%. The hydrolyzed products ([21]; pH 7.4) was 2%, the “time within which MOLNU hydrolyzes completely to isobutyrate and EIDD-1931” value ([21]; pH 12.0, cMOLNU = 1 mM) was ≤ 30 min and the pKa ([2]; pKa1 (pHm)) was 2.14. For the same compound, the pKa ([2]; pKa2 (pHm)) was 10.2, the “quenching of HSA (Trp-214) fluorescence” value [5] was “did not significantly quench” and the “displacement of WF from HSA site I” value (HSA site I) was “no competition”. For the same compound, the “quenching of the fluorescence of AGP” value [6] was “did not quench”, the “hydrolysis of MOLNU within two days” value (HSA) was “Neither of the two media could induce hydrolysis; also recorded: could not hydrolyze the ester bond” and the protein bound fraction ([9]; 30 μM) was “less than 2%”. For the same compound, the protein bound fraction ([10]; HSA 630 μM, 30 μM compound) was < 2%, the solubility thermodynamic (physchem [11]) was ≥ 10 mM and the “species H2L+” value [12, 23] was 58%. For the same compound, the “species HL” value [12, 23] was 42%, the “species HL” value [12, 22] was “HL: 100%” and the “hydrolysis of MOLNU within two days” value (human transferrin) was “The same behavior was observed”. For the same compound, the logD at 2 h (physchem [14]) was -0.68 ± 0.02 and the “displacement of DG from HSA site II” value (HSA site II; HSA-DG 1:1, pH 7.4 (PBS), 25 °C) was “could not displace DG”.

In the case of `CC(C)C(=O)O` [isobutyric acid], the pKa ([18]; I = 0.1 M NaNO3) is given as 4.67.
